Source: US10426766B2, “Crystalline forms of an 8-azabicyclo[3.2.1]octane compound” (THERAVANCE BIOPHARMA R&D IP, LLC, priority 2007, dated 2019)
Structures can show the parent of a compound that is named as a salt.

Experiments:
[1] = tested on: motility of the gastrointestinal (GI) tract; assay: Animal models of gastrointestinal motility; assay type: in vivo
[2] = target: T1, human mu opioid receptor (Homo sapiens, UniProt P35372); assay: Radioligand binding assay on human mu opioid receptor ([3H]-Diprenorphine displacement, CHO-K1 membranes); conditions: [3H]-Diprenorphine at 0.5 nM
T1 sequence (P35372 whole entry): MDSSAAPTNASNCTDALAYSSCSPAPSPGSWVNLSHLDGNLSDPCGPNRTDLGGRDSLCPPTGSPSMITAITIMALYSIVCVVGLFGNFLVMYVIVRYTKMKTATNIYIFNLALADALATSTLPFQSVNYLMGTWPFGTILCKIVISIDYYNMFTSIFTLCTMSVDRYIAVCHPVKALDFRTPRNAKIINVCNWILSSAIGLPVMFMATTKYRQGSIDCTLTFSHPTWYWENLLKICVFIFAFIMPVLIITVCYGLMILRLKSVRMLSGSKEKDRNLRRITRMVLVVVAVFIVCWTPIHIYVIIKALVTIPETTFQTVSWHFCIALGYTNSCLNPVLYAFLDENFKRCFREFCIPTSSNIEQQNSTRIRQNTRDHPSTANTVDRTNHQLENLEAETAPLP

[3] = tested on: loperamide-induced delayed gastric emptying; assay: Rat gastric emptying assay (reversal of loperamide-induced delayed gastric emptying); assay type: in vivo; conditions: administered orally, loperamide 1 mg/kg s.c.
Protocol: In this assay the efficacy of test compounds was evaluated in a model of gastrointestinal transit, which evaluates peripheral activity. This study was approved by the Institutional Animal Care and Use Committee at […]. and conformed to the Guide for the Care and Use of Laboratory Animals published by the National Academy of Sciences (©1996). Test compounds were evaluated in the rat gastric emptying assay to determine their ability to reverse loperamide-induced delayed gastric emptying. Rats were fasted up overnight prior to administration of test compounds or vehicle by intravenous, subcutaneous, intramuscular or oral routes of administration at doses ranging from 0.001 to about 30 milligrams/kilogram (mg/kg). The administration of test compound was followed by subcutaneous administration of loperamide at a dose of 1 mg/kg or vehicle. […] Gastric weight was then determined after removal of the ligatures. Data was analyzed using the GraphPad Prism Software package (GraphPad Software, Inc., San Diego, Calif.). Percent reversal curves were constructed by non-linear regression analysis using the sigmoidal dose response (variable slope) model and best-fit ID50 values were calculated. […]

[4] = Dynamic moisture sorption assessment; assay type: physicochemical
Protocol: Dynamic moisture sorption (DMS) assessment was performed at 25° C. using a VTI atmospheric microbalance, SGA-100 system (VTI Corp., Hialeah, Fla. 33016). […] A typical DMS analysis consisted of three scans: ambient to 2% relative humidity (RH), 2% RH to 90% RH, 90% RH to 5% RH at a scan rate of 5% RH/step. The mass was measured every two minutes and the RH was changed to the next value (±5% RH) when the mass of the sample was stable to within 0.02% for 5 consecutive points. Representative DMS traces for samples of a crystalline sulfate salt and of a crystalline hydrate of a sulfate salt of compound 1 are shown in FIGS. 3 and 6, respectively.

[5] = Solid state stability assessment; assay type: physicochemical; conditions: for changes in DSC, TGA, XRPD results after storage: 4 weeks storage at elevated temperature and humidity
Protocol: Samples of the sulfate salt of the invention were stored in multiple open glass vials at 20° C. and 60% relative humidity (RH) and at 40° C. and 75% RH. At specific intervals, the contents of a representative vial was removed and analyzed by DSC, TGA, PXRD, and by HPLC for chemical purity. […] The chemical purity of the stored samples by HPLC was unchanged at 99.7%.

[6] = target: T1, human mu opioid receptor; assay: biochemical; conditions: read-out: intrinsic activity (IA)

Structure (SMILES)	effect on motility of the gastrointestinal tract [1]	Ki [2] [nM]	ID50, dose required for 50% reversal of the effects of loperamide [3] [mg/kg]	weight change/gain on moisture sorption (hygroscopicity) ([4]; 2% to 90% relative humidity at room temperature)	deliquescence ([4]; up to about 90% relative humidity at room temperature)	changes in DSC, TGA, XRPD results after storage ([5]; listed as crystalline sulfate salt of compound 1)	changes in DSC, TGA, XRPD results after storage ([5]; listed as sulfate salt of the invention)	chemical purity of the stored samples by HPLC ([5]; 4 weeks storage, open vials, 20° C./60% RH and 40° C./75% RH) [%]	chemical degradation by HPLC ([5]; storage for 4 weeks at 40° C. and 75% relative humidity)	Emax [6] [%]
NC(=O)c1cccc(C2CC3CCC(C2)N3CCN(CC2CCCCC2)C(=O)[C@@H](O)CO)c1 (stereo partly drawn) [compound 1, 3-endo-(8-{2-[cyclohexylmethyl-((S)-2,3-dihydroxy-propionyl)amino]ethyl}-8-aza-bicyclo[3.2.1]oct-3-yl)benzamide]	increase motility of the gastrointestinal (GI) tract	–	–	–	–	–	–	–	–	–
NC(=O)c1cccc(C2CC3CCC(C2)N3CCN(CC2CCCCC2)C(=O)[C@@H](O)CO)c1 (stereo partly drawn) [sulfate salt of compound 1, 3-endo-(8-{2-[cyclohexylmethyl-((S)-2,3-dihydroxy-propionyl)amino]ethyl}-8-aza-bicyclo[3.2.1]oct-3-yl)benzamide sulfate]	–	0.126	0.26	less than 0.3%	neither the crystalline sulfate salt of the invention nor the hydrate thereof is deliquescent	no detectable changes	no detectable change	99.7	no chemical degradation	-5
